Among the data in patent publication US10829458B2 (Araxes Pharma LLC, priority 2015, dated 2020) are Binding % values, retold here.

The target in the assay is T1, KRAS G12C 1-169, his-tagged protein, GDP-loaded (Homo sapiens, UniProt P01116, G12C).
T1 construct: KRAS G12C 1-169, his-tagged protein, GDP-loaded
Briefly: Biochemical assay: covalent modification of KRAS G12C measured by mass spectrometry (RapidFire/TOF or Q-Exactive). The conditions noted are these: covalent binding to KRAS G12C; compounds of structure (I). The gist of the method:
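GDP-loaded his-tagged KRAS G12C 1-169 at 2 μM in 20 mM Hepes, 150 mM NaCl, 1 mM MgCl2 incubated at room temperature with compound (10, 30 or 100 μM final, 2% DMSO) for 30 min, 2 h or 24 h, then quenched with formic acid. Intact-protein LC-MS (RapidFire/TOF or Q-Exactive) with deconvolution quantified modified versus unmodified protein.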
On to `C=CC(=O)N1CCN(c2nc(NCCc3ncccn3)nc3c(F)c(-c4c(O)cccc4F)c(Cl)cc23)CC1` [Example I-171, 1-(4-(6-chloro-8-fluoro-7-(2-fluoro-6-hydroxyphenyl)-2-((2-(pyrimidin-2-yl)ethyl)amino)quinazolin-4-yl)piperazin-1-yl) prop-2-en-1-one], for which the Binding % result is given as “++ (++ indicates binding activity from 50 to 90%)”.

In the case of `C=CC(=O)N1CCN(c2nc(OCC3CCN(C4CC4)CC3)nc3c(F)c(-c4c(O)cccc4F)c(Cl)cc23)CC1` [Example I-172, 1-(4-(6-chloro-2-((1-cyclopropyl-piperidin-4-yl)methoxy)-8-fluoro-7-(2-fluoro-6-hydroxyphenyl)quinazolin-4-yl)piperazin-1-yl) prop-2-en-1-one], the Binding % entry is given as “+++ (+++ indicates binding activity greater than 90%)”.

For `C=CC(=O)N1CCN(c2nc(NC3CN(C(C)C)C3)nc3c(F)c(-c4c(C)ccc5[nH]ncc45)c(Cl)cc23)CC1` [Example I-173, 1-(4-(6-chloro-8-fluoro-2-((1-isopropyl-azetidin-3-yl)amino)-7-(5-methyl-1H-indazol-4-yl)quinazolin-4-yl)piperazin-1-yl) prop-2-en-1-one], the Binding % entry is “+ (+ indicates binding activity up to 50%)”.

Regarding `C=CC(=O)N1CCN(c2nc(NC3CN(C(C)C)C3)nc3c(F)c(-c4c(O)cccc4F)c(Cl)cc23)CC1` [Example I-174, 1-(4-(6-chloro-8-fluoro-7-(2-fluoro-6-hydroxyphenyl)-2-((1-isopropyl-azetidin-3-yl)amino)quinazolin-4-yl)piperazin-1-yl) prop-2-en-1-one], the Binding % result is listed as “+ (+ indicates binding activity up to 50%)”.

Turning to `C=CC(=O)N1CCN(c2nc(N)nc3c(F)c(-c4c(O)cccc4F)c(Cl)cc23)CC1` [Example I-175, 1-(4-(2-amino-6-chloro-8-fluoro-7-(2-fluoro-6-hydroxyphenyl)quinazolin-4-yl)piperazin-1-yl) prop-2-en-1-one], the Binding % entry is reported as “++ (++ indicates binding activity from 50 to 90%)”.

As for `C=CC(=O)N1CCN(c2nc(N3CC(N4CCN(C5CC5)CC4)C3)nc3c(F)c(-c4c(C)ccc5[nH]ncc45)c(Cl)cc23)CC1` [Example I-176, 1-(4-(6-chloro-2-(3-(4-cyclopropyl-piperazin-1-yl)azetidin-1-yl)-8-fluoro-7-(5-methyl-1H-indazol-4-yl)quinazolin-4-yl)piperazin-1-yl) prop-2-en-1-one], the Binding % entry is on record as “++ (++ indicates binding activity from 50 to 90%)”.

In the case of `C=CC(=O)N1CCN(c2nc(NC3CCN(C(C)(C)C)CC3)nc3c(F)c(-c4c(C)ccc5[nH]ncc45)c(Cl)cc23)CC1` [Example I-177, 1-(4-(2-((1-(tert-butyl)piperidin-4-yl)amino)-6-chloro-8-fluoro-7-(5-methyl-1H-indazol-4-yl)quinazolin-4-yl)piperazin-1-yl) prop-2-en-1-one], the Binding % entry is “+++ (+++ indicates binding activity greater than 90%)”.

For `C=CC(=O)N1CCN(c2nc(OC3CN(C(C)C)C3)nc3c(F)c(-c4c(O)cccc4F)c(Cl)cc23)CC1` [Example I-178, 1-(4-(6-chloro-8-fluoro-7-(2-fluoro-6-hydroxyphenyl)-2-((1-isopropyl-azetidin-3-yl)oxy)quinazolin-4-yl)piperazin-1-yl)prop-2-en-1-one], the Binding % result is “++ (++ indicates binding activity from 50 to 90%)”.

As to `C=CC(=O)N1CCN(c2nc(N3CC(N4CC(F)(F)C4)C3)nc3c(F)c(-c4c(O)cccc4F)c(Cl)cc23)CC1` [Example I-179, 1-(4-(6-chloro-2-(3,3-difluoro-[1,3′-biazetidin]-1′-yl)-8-fluoro-7-(2-fluoro-6-hydroxyphenyl)quinazolin-4-yl)piperazin-1-yl) prop-2-en-1-one], the Binding % result is reported as “+ (+ indicates binding activity up to 50%)”.

In the case of `C=CC(=O)N1CCN(c2nc(OCCC3CCN(C(C)C)CC3)nc3c(F)c(-c4c(O)cccc4F)c(Cl)cc23)CC1` [Example I-180, 1-(4-(6-chloro-8-fluoro-7-(2-fluoro-6-hydroxyphenyl)-2-(2-(1-isopropyl-piperidin-4-yl)ethoxy)quinazolin-4-yl)piperazin-1-yl) prop-2-en-1-one], the Binding % result is on record as “+++ (+++ indicates binding activity greater than 90%)”.

As to `C=CC(=O)N1CCN(c2nc(NC(=O)c3ccnc(C)c3)nc3c(F)c(-c4c(O)cccc4F)c(Cl)cc23)CC1` [Example I-181, N-(4-(4-acryloyl-piperazin-1-yl)-6-chloro-8-fluoro-7-(2-fluoro-6-hydroxyphenyl)quinazolin-2-yl)-2-methyliso-nicotinamide], the Binding % entry is “+ (+ indicates binding activity up to 50%)”.

On to `C=CC(=O)N1CCN(c2nc(NC3CN(c4ncccn4)C3)nc3c(F)c(-c4c(O)cccc4F)c(Cl)cc23)CC1` [Example I-182, 1-(4-(6-chloro-8-fluoro-7-(2-fluoro-6-hydroxyphenyl)-2-((1-(pyrimidin-2-yl)azetidin-3-yl)amino)quinazolin-4-yl)piperazin-1-yl) prop-2-en-1-one], for which the Binding % result is recorded as “+ (+ indicates binding activity up to 50%)”.

For the compound `C=CC(=O)N1CCN(c2nc(OCCN(CC)CC)nc3c(F)c(-c4c(C)ccc5cn[nH]c45)c(Cl)cc23)CC1` [Example I-183, 1-(4-(6-chloro-2-(2-(diethyl-amino)ethoxy)-8-fluoro-7-(6-methyl-1H-indazol-7-yl)quinazolin-4-yl)piperazin-1-yl) prop-2-en-1-one], the Binding % result is “+++ (+++ indicates binding activity greater than 90%)”.

Regarding `C=CC(=O)N1CCN(c2nc(NC3CCN(c4ncccn4)CC3)nc3c(F)c(-c4c(C)ccc5[nH]ncc45)c(Cl)cc23)CC1` [Example I-184, 1-(4-(6-chloro-8-fluoro-7-(5-methyl-1H-indazol-4-yl)-2-((1-(pyrimidin-2-yl)piperidin-4-yl)amino)quinazolin-4-yl)piperazin-1-yl) prop-2-en-1-one], the Binding % result is recorded as “+ (+ indicates binding activity up to 50%)”.

On to `C=CC(=O)N1CCN(c2nc(NC3CN(C4CCOCC4)C3)nc3c(F)c(-c4c(O)cccc4F)c(Cl)cc23)CC1` [Example I-185, 1-(4-(6-chloro-8-fluoro-7-(2-fluoro-6-hydroxyphenyl)-2-((1-(tetrahydro-2H-pyran-4-yl)azetidin-3-yl)amino)quinazolin-4-yl)piperazin-1-yl) prop-2-en-1-one], for which the Binding % entry is given as “+ (+ indicates binding activity up to 50%)”.

Take `C=CC(=O)N1CCN(c2nc(OC3CN(C4CCOCC4)C3)nc3c(F)c(-c4c(O)cccc4F)c(Cl)cc23)CC1` [Example I-186, 1-(4-(6-chloro-8-fluoro-7-(2-fluoro-6-hydroxyphenyl)-2-((1-(tetrahydro-2H-pyran-4-yl)azetidin-3-yl)oxy)quinazolin-4-yl)piperazin-1-yl) prop-2-en-1-one]: the Binding % entry is “++ (++ indicates binding activity from 50 to 90%)”.

With `C=CC(=O)N1CCN(c2nc(NC3CN(c4ncccn4)C3)nc3c(F)c(-c4c(C)ccc5[nH]ncc45)c(Cl)cc23)CC1` [Example I-187, 1-(4-(6-chloro-8-fluoro-7-(5-methyl-1H-indazol-4-yl)-2-((1-(pyrimidin-2-yl)azetidin-3-yl)amino)quinazolin-4-yl)piperazin-1-yl) prop-2-en-1-one], the Binding % entry is reported as “+ (+ indicates binding activity up to 50%)”.

As to `C=CC(=O)N1CCN(c2nc(NC3CC4CCC(C3)N4C3CC3)nc3c(F)c(-c4c(C)ccc5[nH]ncc45)c(Cl)cc23)CC1` (stereo not drawn) [Example I-188, 1-(4-(6-chloro-2-((8-cyclopropyl-8-azabicyclo[3.2.1]octan-3-yl)amino)-8-fluoro-7-(5-methyl-1H-indazol-4-yl)quinazolin-4-yl)piperazin-1-yl) prop-2-en-1-one], the Binding % result is on record as “++ (++ indicates binding activity from 50 to 90%)”.

On to `C=CC(=O)N1CCN(c2nc(N)nc3c(F)c(-c4c(C)ccc5[nH]ncc45)c(Cl)cc23)CC1` [Example I-189, 1-(4-(2-amino-6-chloro-8-fluoro-7-(5-methyl-1H-indazol-4-yl)quinazolin-4-yl)piperazin-1-yl) prop-2-en-1-one], for which the Binding % entry is reported as “++ (++ indicates binding activity from 50 to 90%)”.

Consider `C=CC(=O)N1CCN(c2nc(NC3CCN(c4ncccn4)CC3)nc3c(F)c(-c4c(O)cccc4F)c(Cl)cc23)CC1` [Example I-190, 1-(4-(6-chloro-8-fluoro-7-(2-fluoro-6-hydroxyphenyl)-2-((1-(pyrimidin-2-yl)piperidin-4-yl)amino)quinazolin-4-yl)piperazin-1-yl) prop-2-en-1-one], for which the Binding % result is recorded as “+ (+ indicates binding activity up to 50%)”.

Consider `C=CC(=O)N1CCN(c2nc(N)nc3c(F)c(-c4cc(O)cc5ccccc45)c(Cl)cc23)CC1` [Example I-191, 1-(4-(2-amino-6-chloro-8-fluoro-7-(3-hydroxy-naphthalen-1-yl)quinazolin-4-yl)piperazin-1-yl) prop-2-en-1-one], for which the Binding % result is reported as “+++ (+++ indicates binding activity greater than 90%)”.

In the case of `C=CC(=O)N1CCN(c2nc(OCCC3CCN(C4CC4)CC3)nc3c(F)c(-c4c(O)cccc4F)c(Cl)cc23)CC1` [Example I-192, 1-(4-(6-chloro-2-(2-(1-cyclopropyl-piperidin-4-yl)ethoxy)-8-fluoro-7-(2-fluoro-6-hydroxyphenyl)quinazolin-4-yl)piperazin-1-yl) prop-2-en-1-one], the Binding % result is “+++ (+++ indicates binding activity greater than 90%)”.

`C=CC(=O)N1CCN(c2nc(OC3CCN(C(C)C)CC3)nc3c(F)c(-c4c(C)ccc5[nH]ncc45)c(Cl)cc23)CC1` [Example I-193, 1-(4-(6-chloro-8-fluoro-2-((1-isopropyl-piperidin-4-yl)oxy)-7-(5-methyl-1H-indazol-4-yl)quinazolin-4-yl)piperazin-1-yl) prop-2-en-1-one]: the Binding % entry is given as “+++ (+++ indicates binding activity greater than 90%)”.

Regarding `C=CC(=O)N1CCN(c2nc(OC3CCN(C4CC4)CC3)nc3c(F)c(-c4c(C)ccc5[nH]ncc45)c(Cl)cc23)CC1` [Example I-194], the Binding % entry is reported as “+ (+ indicates binding activity up to 50%)”.
